The text below walks through data of patent US10457637B2, “Benzenesulfonamide derivatives as inverse agonists of retinoid-related orphan receptor gamma (RORγ(T))” (GALDERMA RESEARCH & DEVELOPMENT, priority 2014, dated 2019).

SMILES strings stand for the structures.

For the assay, the target named is ROR gamma ligand-binding domain (hRORg) (Homo sapiens (Human), UniProt P51449). The assay is described as follows: GAL4-RORγ transactivation (luciferase reporter, HG5LN HeLa line). The class given is cell-based. As to conditions: 18 hours incubation. An excerpt: GAL4-RORγ Transactivation
Chain of ROR gamma ligand-binding domain (hRORg) (P51449 269-508): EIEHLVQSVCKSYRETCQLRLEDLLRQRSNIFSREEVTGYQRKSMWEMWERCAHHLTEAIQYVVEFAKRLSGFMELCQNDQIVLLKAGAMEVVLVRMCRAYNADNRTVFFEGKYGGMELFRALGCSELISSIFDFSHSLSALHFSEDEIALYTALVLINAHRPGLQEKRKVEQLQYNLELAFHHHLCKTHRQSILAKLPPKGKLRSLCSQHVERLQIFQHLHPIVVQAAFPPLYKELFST
The RORγ transactivation model was developed from the line HG5LN, which is a HeLa line that stably expresses a luciferase reporter gene controlled by a pentamer of the GAL4 recognition domain of yeast and of a β-globin promoter. The HG5LN line was stably transfected by the DNA-binding domain (DBD) of GAL4 fused to the ROR gamma ligand-binding domain (LBD). Molecules that inhibit the ROR gamma constitutive activity reduce the luciferase expression, thus leading to a reduction in the emitted luminescence.
The cells are seeded in 384-well plates (5000 cells in 45 μL/well of culture medium containing 10% fetal calf serum) and incubated for 4 hours at 37° C., 5% CO2. 5 μL of the test molecules (compounds described in the tables described above) are then added to each well and the plates are incubated for 18 hours at a temperature of 37° C. under 5% of CO2. 20 μL of luciferase substrate (Promega) are added to each well and the luminescence emitted is read by a microplate reader.
The luminescence units (“RLU”) are normalized by positive controls (“POS” containing a saturated concentration of benzenesulfonamide, N-(2,2,2-trifluoroethyl)-N-[4-[2,2,2-trifluoro-1-hydroxy-1-(trifluoromethyl)ethyl]phenyl]) and negative controls (“NEG” containing DMSO): % inhibition=((RLU−NEG)*100)/(POS−NEG). The IC50 values are calculated from a 4-parameter logistic model using the XLFit software (IDBS).
(In a reporter assay the amount or activity of a reporter protein is the signal.)
A word on the IC50: it is the concentration at which inhibition is half-maximal. Lower therefore signals greater potency in that assay. As for `CCc1ccc(N(CC(C)C)S(=O)(=O)c2ccc3c(c2)N(CC2CCOCC2)C(=O)C[S+]3[O-])cc1` (stereo not drawn) [compound 4, 1,3-dioxo-4-(tetrahydropyran-4-ylmethyl)-1,2,3,4-tetrahydro-1λ^4-benzo[1,4]thiazine-6-sulfonic acid (4-ethylphenyl)isobutylamide], the IC50 is > 1000 nM. To `CCc1ccc(N(CC(C)C)S(=O)(=O)c2ccc3c(c2)N(CC2CCOCC2)CCS3)cc1` [compound 6, 4-(tetrahydropyran-4-ylmethyl)-3,4-dihydro-2H-benzo[1,4]thiazine-6-sulfonic acid (4-ethylphenyl)isobutylamide] belongs > 1000 nM; to `CCc1ccc(N(CC(C)C)S(=O)(=O)c2ccc3c(c2)NCCS3)cc1` [compound 9, 3,4-dihydro-2H-benzo[1,4]thiazine-6-sulfonic acid (4-ethylphenyl)isobutylamide], > 1000 nM. On to `CCc1ccc(N(CC(C)C)S(=O)(=O)c2ccc3c(c2)NC(=O)CS3)cc1` [compound 10, 3-oxo-3,4-dihydro-2H-benzo[1,4]thiazine-6-sulfonic acid (4-ethylphenyl)isobutylamide], for which the IC50 is > 1000 nM.

`CCc1ccc(N(CC(C)C)S(=O)(=O)c2ccc([S+]([O-])CC3CCOCC3)c(C(=O)OC)c2)cc1` (stereo not drawn) [compound 16, methyl 5-[(4-ethylphenyl)isobutylsulfamoyl]-2-(tetrahydropyran-4-ylmethanesulfinyl)benzoate]: the IC50 was > 1000 nM.

Consider `CCc1ccc(N(CC(C)C)S(=O)(=O)c2ccc(SCC3CCOCC3)c(C(=O)OC)c2)cc1` [compound 17, methyl 5-[(4-ethylphenyl)isobutylsulfamoyl]-2-(tetrahydropyran-4-ylmethylsulfanyl)benzoate], for which the IC50 was > 1000 nM. To `CCc1ccc(N(CC(C)C)S(=O)(=O)c2ccc(OCC3CCOCC3)c([S+]([O-])CC)c2)cc1` (stereo not drawn) [compound 22, ethanesulfinyl-N-(4-ethylphenyl)-N-isobutyl-4-(tetrahydropyran-4-ylmethoxy)benzenesulfonamide] belongs 100 to 1000 nM; to `CCc1ccc(N(CC(C)C)S(=O)(=O)c2ccc(OCC3CCOCC3)c(SC)c2)cc1` [compound 25, N-(4-ethylphenyl)-N-isobutyl-3-methylsulfanyl-4-(tetrahydropyran-4-ylmethoxy)benzenesulfonamide], 100 to 1000 nM. To `CCc1ccc(N(CC(C)C)S(=O)(=O)c2ccc(S(=N)(=O)CC3CCOCC3)cc2)cc1` (stereo not drawn) [compound 28, N-(4-ethylphenyl)-N-isobutyl-4-(tetrahydropyran-4-ylmethanesulfoximimyl)benzenesulfonamide] belongs > 1000 nM; to `CCc1ccc(N(CC(C)C)S(=O)(=O)c2ccc(OCC3C4COCC43)c(S(C)(=N)=O)c2)cc1` (stereo not drawn) [compound 31, 4-((3-oxabicyclo[3.1.0]hexan-6-yl)methoxy)-N-(4-ethylphenyl)-N-isobutyl-3-(S-methylsulfonimidoyl)benzenesulfonamide], < 100 nM; to `CCc1ccc(N(CC(C)C)S(=O)(=O)c2ccc(OCC3(F)COC3)c(S(C)(=N)=O)c2)cc1` (stereo not drawn) [compound 32, N-(4-eethylphenyl)-4-((3-fluorooxetan-3-yl)methoxy)-N-isobutyl-3-(S-methylsulfonimidoyl)benzenesulfonamide], > 1000 nM. The result for `CCc1ccc(N(CC(C)C)S(=O)(=O)c2ccc(OC3CCN(C(=O)OC(C)(C)C)CC3)c(S(C)(=N)=O)c2)cc1` (stereo not drawn) [compound 33, tert-butyl 4-(4-(N-(4-ethylphenyl)-N-isobutylsulfamoyl)-2-(S-methylsulfonimidoyl)phenoxy)piperidine-1-carboxylate] reads > 1000 nM; that for `CCc1ccc(N(CC(C)C)S(=O)(=O)c2ccc(OCC3(C)COC3)c(S(C)(=N)=O)c2)cc1` (stereo not drawn) [compound 34, N-(4-ethylphenyl)-N-isobutyl-4-((3-methyloxetan-3-yl)methoxy)-3-(S-methylsulfonimidoyl)benzenesulfonamide], > 1000 nM; that for `CCc1ccc(N(CC(C)C)S(=O)(=O)c2ccc(OCC3CCN(C(=O)OC(C)(C)C)CC3)c(S(C)(=N)=O)c2)cc1` (stereo not drawn) [compound 36, tert-butyl 4-((4-(N-(4-ethylphenyl)-N-isobutylsulfamoyl)-2-(S-methylsulfonimidoyl)phenoxy)methyl)piperidine-1-carboxylate], > 1000 nM.

As for `CCc1ccc(N(CC(C)C)S(=O)(=O)c2ccc(OCCc3ccno3)c(S(C)(=N)=O)c2)cc1` (stereo not drawn) [compound 38, N-(4-ethylphenyl)-N-isobutyl-4-(2-(isoxazol-5-yl)ethoxy)-3-(S-methylsulfonimidoyl)benzenesulfonamide], the IC50 was > 1000 nM. `CCc1ccc(N(CC(C)C)S(=O)(=O)c2ccc(OCc3ccncc3)c(S(C)(=N)=O)c2)cc1` (stereo not drawn) [compound 39, N-(4-ethylphenyl)-N-isobutyl-3-(S-methylsulfonimidoyl)-4-(pyridin-4-ylmethoxy)benzenesulfonamide]: the IC50 is > 1000 nM. `CCc1ccc(N(CC(C)C)S(=O)(=O)c2ccc(OCC(O)CO)c(S(C)(=N)=O)c2)cc1` (stereo not drawn) [compound 40, 4-(2,3-dihydroxypropoxy)-N-(4-ethylphenyl)-N-isobutyl-3-(S-methylsulfonimidoyl)benzenesulfonamide]: the IC50 is > 1000 nM. The result for `CCc1ccc(N(CC(C)C)S(=O)(=O)c2ccc(OCc3cc(C)nc(C)c3)c(S(C)(=N)=O)c2)cc1` (stereo not drawn) [compound 43, 4-((2,6-dimethylpyridin-4-yl)methoxy)-N-(4-ethylphenyl)-N-isobutyl-3-(S-methylsulfonimidoyl)benzenesulfonamide] reads > 1000 nM.

Take `CCc1ccc(N(CC(C)C)S(=O)(=O)c2ccc(OCc3ccc(F)cc3F)c(S(C)(=N)=O)c2)cc1` (stereo not drawn) [compound 45, 4-((2,4-difluorobenzyl)oxy)-N-(4-ethylphenyl)-N-isobutyl-3-(S-methylsulfonimidoyl)benzenesulfonamide]: the IC50 was > 1000 nM. To `CCc1ccc(N(CC(C)C)S(=O)(=O)c2ccc(OCC3CCNCC3)c(S(C)(=N)=O)c2)cc1` (stereo not drawn) [compound 49, N-(4-ethylphenyl)-N-isobutyl-3-(S-methylsulfonimidoyl)-4-(piperidin-4-ylmethoxy)benzenesulfonamide] belongs > 1000 nM; to `CCc1ccc(N(CC(C)C)S(=O)(=O)c2ccc(OCC3CCN(C(C)=O)CC3)c(S(C)(=N)=O)c2)cc1` (stereo not drawn) [compound 50, 4-((1-acetylpiperidin-4-yl)methoxy)-N-(4-ethylphenyl)-N-isobutyl-3-(S-methylsulfonimidoyl)benzenesulfonamide], > 1000 nM. The result for `CCc1ccc(N(CC(C)C)S(=O)(=O)c2ccc(OCC3CCN(S(C)(=O)=O)CC3)c(S(C)(=N)=O)c2)cc1` (stereo not drawn) [compound 51] reads > 1000 nM; that for `CCc1ccc(N(CC(C)C)S(=O)(=O)c2ccc(NCC3COC3)c(S(C)(=N)=O)c2)cc1` (stereo not drawn) [compound 54, N-(4-ethylphenyl)-N-isobutyl-3-(S-methylsulfonimidoyl)-4-((oxetan-3-ylmethyl)amino)benzenesulfonamide], 100 to 1000 nM. To `CCc1ccc(N(CC(C)C)S(=O)(=O)c2ccc(NCC3CCS(=O)(=O)C3)c(S(C)(=N)=O)c2)cc1` (stereo not drawn) [compound 56, 4-(((1,1-dioxidotetrahydrothiophen-3-yl)methyl)amino)-N-(4-ethylphenyl)-N-isobutyl-3-(S-methylsulfonimidoyl)benzenesulfonamide] belongs 100 to 1000 nM.
